Experimental data: patent US20230094471A1, “CYTOTOXIC BIS-BENZODIAZEPINE DERIVATIVES AND CONJUGATES THEREOF WITH CELL-BINDING AGENTS FOR INHIBITING ABNORMAL CELL GROWTH OR FOR TREATING PROLIFERATIVE DISEASES” (priority 2019, published 2023)

What was measured:
KB (cervical carcinoma) = experiment: In vitro cytotoxicity assay (WST-8), KB cells; conditions: Homo sapiens, 120 h, read-out: IC50 values for free cytotoxic compounds, KB
Description: (§1) The following cell lines were used for the studies: KB (cervical carcinoma, ATCC), NCI-H2110 (Non Small Cell Lung Carcinoma, ATCC), Namalwa (Burkitt's lymphoma, ATCC), and T47D (breast epithelial cancer, ATCC). The cells were maintained and plated for the cytotox experiments in media recommended by the manufacturers. Cells were plated in the 96-well flat bottom plates at a seeding density of 1,000 cells per well (KB, Namalwa) or 2,000 cell per well (NCI H2110, T47D). […] To determine specificity of cytotoxic activity of the conjugates an excess of unconjugated antibody was added to a separate set of diluted conjugates (+block samples, IC50 table). The plates were incubated at 37° C., 5% CO2 for either 4 days (T47D cells) or 5 days (KB, NCI H2110 cells). Alamar blue assay (Invitrogen) was used to determine viability of T47D cells, and WST-8 assay (Donjindo Molecular Technologies, Inc.) was applied for viability of KB, NCI H2110, Namalwa cells. The assays were performed in accordance with the manufacturer's protocols. Killing curves and IC50 were generated using a sigmoidal dose-response nonlinear regression curve fit (GraphPad Software Inc.).

[1] = tested on: Namalwa (Burkitt's lymphoma); experiment: In vitro cytotoxicity assay (WST-8), Namalwa cells; conditions: read-out: IC50 values for free cytotoxic compounds, Namalwa
Description: as §1

[2] = Phase I clinical evaluation (Hochhauser et al., 2009); cited from earlier work

Row | SMILES | IC50 (KB (cervical carcinoma)) [pM] | IC50 [1] [pM] | maximum tolerated dose [2] [μg/m^2]
1 | COc1cc2c(cc1OCCCCCOc1cc3c(cc1OC)C(=O)N1c4ccccc4C[C@H]1CN3)N=C[C@@H]1Cc3ccccc3CN1C2=O [Compound 123] | 3 | 1 | –
2 | COc1cc2c(cc1OCc1cccc(COc3cc4c(cc3OC)C(=O)N3c5ccccc5C[C@H]3CN4)n1)N=C[C@@H]1Cc3ccccc3N1C2=O [Compound 159] | 3 | 1 | –
3 | COc1cc2c(cc1OCCCOc1cc3c(cc1OC)C(=O)N1c4ccccc4C[C@H]1CN3)N=C[C@@H]1Cc3ccccc3N1C2=O [Compound 161] | 250 | 30 | –
4 | COc1cc2c(cc1OCCCCCOc1cc3c(cc1OC)C(=O)N1c4ccccc4C[C@H]1CN3)N=C[C@@H]1Cc3ccccc3N1C2=O [Compound 162] | 20 | 3 | –
5 | COc1cc2c(cc1OCc1cccc(COc3cc4c(cc3OC)C(=O)N3c5ccccc5C[C@H]3CN4)c1)N=C[C@@H]1Cc3ccccc3N1C2=O [Compound 150] | 8 | 1 | –
6 | COCCOCCOCCNc1cc(COc2cc3c(cc2OC)C(=O)N2c4ccccc4C[C@H]2C=N3)cc(COc2cc3c(cc2OC)C(=O)N2c4ccccc4C[C@H]2CN3)c1 [Compound 155] | 20 | 2 | –
7 | COC(=O)c1cc(COc2cc3c(cc2OC)C(=O)N2c4ccccc4C[C@H]2C=N3)cc(COc2cc3c(cc2OC)C(=O)N2c4ccccc4C[C@H]2CN3)c1 [Compound 157] | 3 | 1 | –
8 | C=C1C[C@H]2C=Nc3cc(OCCCOc4cc5c(cc4OC)C(=O)N4CC(=C)C[C@H]4C=N5)c(OC)cc3C(=O)N2C1 [SJG-136] | – | – | 45
9 | COc1cc2c(cc1OCCCCCOc1cc3c(cc1OC)C(=O)N1Cc4ccccc4C[C@H]1CN3)N=C[C@@H]1Cc3ccccc3N1C2=O [Compound 108] | 50 | 10 | –
